Assay results published in the Deep4Chem optical property database.
Where “and” joins values, the source holds several entries; their conditions need not be identical. Equal values may be shown once. One block for each compound: values may come before it.

Experiment: solvent given as SMILES
[1] = in O=P(c1ccccc1)(c1ccccc1)c1ccccc1Oc1ccccc1P(=O)(c1ccccc1)c1ccccc1

SMILES: Cc1cc(C)c(B(c2cc3c4c(c(B(c5c(C)cc(C)cc5C)c5c(C)cc(C)cc5C)cc5c4c2CCC5)CCC3)c2c(C)cc(C)cc2C)c(C)c1
fluorescence lifetime (in CCCCCC): 14.6 ns

SMILES: CCCCOc1ccc(-c2oc3c(-c4ccc(OCCCC)cc4)c4n(c3c2-c2ccc(OCCCC)cc2)[B-](F)(F)[N+]2=Cc3c(-c5ccc(OCCCC)cc5)c5oc(-c6ccc(OCCCC)cc6)c(-c6ccc(OCCCC)cc6)c5n3[B-](F)(F)[N+]2=C4)cc1
fluorescence lifetime (in ClCCl): 2.56 ns

SMILES: CC1(C)c2ccccc2-c2cc3c4ccccc4n(-c4ccc(-c5nc(-c6ccccc6)nc(-c6ccccc6)n5)cc4)c3cc21
fluorescence lifetime [1]: 9.3 ns

SMILES: Cc1ccc2cc(C)ccc2c1
fluorescence lifetime (in C1CCCCC1): 64 ns

SMILES: CCC1=C(C)C2=Cc3c(I)c(I)cn3[B-](F)(F)[N+]2=C1C
fluorescence lifetime (in C1CCCCC1): 0.212 ns
fluorescence lifetime (in CC(C)=O): 0.097 ns
fluorescence lifetime (in CCO): 0.09 ns
fluorescence lifetime (in CCOC(C)=O): 0.116 ns
fluorescence lifetime (in CO): 0.087 ns
fluorescence lifetime (in OCC(F)(F)F): 0.11 ns

SMILES: N#Cc1c(-n2c3ccccc3c3ccccc32)cccc1-n1c2ccccc2c2ccccc21
fluorescence lifetime (in Cc1ccccc1): 2.6 ns
fluorescence lifetime [1]: 4 ns

SMILES: COc1ccc(/C2=C3N=C(C(c4ccccc4)=C/3c3ccccc3)/C(c3ccc(OC)cc3)=c3\[nH]/c(c(-c4ccccc4)c3-c3ccccc3)=C(/c3ccc(OC)cc3)C3=N/C(=C(/c4ccc(OC)cc4)c4[nH]c2c(-c2ccccc2)c4-c2ccccc2)C(c2ccccc2)=C3c2ccccc2)cc1
fluorescence lifetime (in ClCCl): 0.921 ns

SMILES: CCCCCCCCn1c(=O)c2cc3c(C#Cc4ccc(N(c5ccccc5)c5ccccc5)cc4)c4cc5c(=O)n(CCCCCCCC)c(=O)c5cc4c(C#Cc4ccc(N(c5ccccc5)c5ccccc5)cc4)c3cc2c1=O
fluorescence lifetime (in ClC(Cl)Cl): 3.4 ns

SMILES: c1ccc(-c2cc(-c3ccc(-c4nc(-c5ccccn5)c(-c5ccccn5)[nH]4)cc3)cc(-c3ccccn3)n2)nc1
fluorescence lifetime (in C1CCOC1): 1.46 ns
fluorescence lifetime (in CC#N): 1.44 ns
fluorescence lifetime (in CC(C)=O): 1.09 ns
fluorescence lifetime (in CCCCCC): 0.065 ns
fluorescence lifetime (in CCO): 2.04 ns
fluorescence lifetime (in CCOC(C)=O): 1.18 ns
fluorescence lifetime (in CN(C)C=O): 1.91 ns
fluorescence lifetime (in CO): 1.41 ns
fluorescence lifetime (in CS(C)=O): 2.04 ns
fluorescence lifetime (in ClC(Cl)Cl): 1.19 ns
fluorescence lifetime (in ClCCl): 3.43 ns
fluorescence lifetime (in O): 2.39 ns

SMILES: N#Cc1cc(-n2c3ccccc3c3ccccc32)c(C#N)cc1-n1c2ccccc2c2ccccc21
fluorescence lifetime (in c1ccc2c(c1)c1ccccc1n2P1(n2c3ccccc3c3ccccc32)=NP(n2c3ccccc3c3ccccc32)(n2c3ccccc3c3ccccc32)=NP(n2c3ccccc3c3ccccc32)(n2c3ccccc3c3ccccc32)=N1): 34 ns

SMILES: CCn1c2sccc2c2c3nsnc3c3c4ccsc4n(CC)c3c21
fluorescence lifetime (in C1CCOC1): 15 ns
fluorescence lifetime (in CCOC(C)=O): 15.6 ns
fluorescence lifetime (in CN(C)C=O): 16.8 ns
fluorescence lifetime (in Cc1ccccc1): 13 ns
fluorescence lifetime (in ClCCl): 14.6 ns

SMILES: N#Cc1ccc(/C=C/c2c3ccccc3cc3ccccc23)cc1
fluorescence lifetime (in C1CCOC1): 0.82 ns
fluorescence lifetime (in CC1CCCCC1): 3.01 ns
fluorescence lifetime (in CC#N): 0.68 ns
fluorescence lifetime (in CO): 0.6 ns
fluorescence lifetime (in Cc1ccccc1): 2.12 ns
fluorescence lifetime (in ClC(Cl)Cl): 0.82 ns

SMILES: Cc1cc(C)n2c1C=C1c3ccccc3C(c3ccc[nH]3)=[N+]1[B-]2(F)F
fluorescence lifetime (in C1CCOC1): 7.36 ns
fluorescence lifetime (in CC#N): 7.41 ns
fluorescence lifetime (in CCCCCC): 7.93 ns
fluorescence lifetime (in CO): 7.47 ns
fluorescence lifetime (in Cc1ccccc1): 6.82 ns
fluorescence lifetime (in ClCCl): 7.28 ns

SMILES: COc1ccc(-c2nnc(-c3cc(-c4nnc(-c5ccc(OC)cc5)o4)c(-n4c5ccccc5c5ccccc54)cc3-n3c4ccccc4c4ccccc43)o2)cc1
fluorescence lifetime (in Cc1ccccc1): 5.1 ns
fluorescence lifetime [1]: 7.3 ns

SMILES: CCCCCCCCCCn1nnc(-c2ccc(C#Cc3ccc(C#Cc4ccc(-c5nnn(CCCCCCCCCC)n5)cc4)c4nc5c6ccccc6c6ccccc6c5nc34)cc2)n1
fluorescence lifetime (in C1CCOC1): 3.66 ns
fluorescence lifetime (in Cc1ccccc1): 2.52 ns
fluorescence lifetime (in ClCCl): 4.8 ns

SMILES: CCC1=C(C)C2=C(C)c3cccn3[B-](F)(F)[N+]2=C1C
fluorescence lifetime (in C1CCCCC1): 5.46 ns
fluorescence lifetime (in CC(C)=O): 5.66 ns
fluorescence lifetime (in CCO): 5.73 ns
fluorescence lifetime (in CCOC(C)=O): 5.57 ns
fluorescence lifetime (in CO): 5.78 ns
fluorescence lifetime (in OCC(F)(F)F): 6.17 ns

SMILES: C#CCNC1=C2C=CC=[N+]2[B-](F)(F)n2cccc21
fluorescence lifetime (in C1CCCCC1): 6.36 ns and 5.34 ns
fluorescence lifetime (in CC(C)=O): 4.92 ns
fluorescence lifetime (in CCCCO): 6.02 ns
fluorescence lifetime (in CCCO): 5.16 ns
fluorescence lifetime (in CCO): 4.14 ns and 3.81 ns
fluorescence lifetime (in CCOC(C)=O): 5.13 ns
fluorescence lifetime (in CN(C)C=O): 2.98 ns
fluorescence lifetime (in CO): 3.22 ns
fluorescence lifetime (in CS(C)=O): 1.73 ns
fluorescence lifetime (in Cc1ccccc1): 6.56 ns
fluorescence lifetime (in ClC(Cl)Cl): 5.29 ns
fluorescence lifetime (in OCC(F)(F)F): 6.34 ns
fluorescence lifetime (in c1ccccc1): 6.28 ns

SMILES: c1ccc2c(c1)OP1(=NP3(=NP(Oc4ccc5ccc6cccc7ccc4c5c67)(Oc4ccc5ccc6cccc7ccc4c5c67)=N1)Oc1ccccc1-c1ccccc1O3)Oc1ccccc1-2
fluorescence lifetime (in ClCCl): 1.23 ns

SMILES: Cc1ccccc1-c1nc(-c2ccccc2C)nc(-c2ccc(N3c4ccccc4C4(c5ccccc5-c5ccccc54)c4ccccc43)cc2C)n1
fluorescence lifetime [1]: 24 ns

SMILES: CCCCCCOc1ccc(N(c2ccc(OCCCCCC)cc2)c2ccc(-c3sc(-c4ccc(N(c5ccc(OCCCCCC)cc5)c5ccc(OCCCCCC)cc5)cc4)c4nc(-c5ccc(C(=O)OC)cc5)c(-c5ccc(C(=O)OC)cc5)nc34)cc2)cc1
fluorescence lifetime (in CN(C)C=O): 0.61 ns
fluorescence lifetime (in ClC(Cl)Cl): 0.58 ns

SMILES: c1ccc2c(c1)CCc1c-2cnc2c1-c1ccccc1CC2
fluorescence lifetime (in C1CCOC1): 3.33 ns
fluorescence lifetime (in CC#N): 3.66 ns
fluorescence lifetime (in CCCCCC): 3.14 ns
fluorescence lifetime (in CCOC(C)=O): 3.46 ns
fluorescence lifetime (in CO): 3.96 ns
fluorescence lifetime (in CS(C)=O): 3.88 ns
fluorescence lifetime (in Cc1ccccc1): 3.24 ns
fluorescence lifetime (in ClCCl): 3.67 ns

SMILES: COc1ccc2c(=O)c3c([nH]c2c1)-c1cc(Cl)ccc1NC3(C)C
fluorescence lifetime (in C1CCOC1): 8.91 ns
fluorescence lifetime (in CC#N): 9.32 ns
fluorescence lifetime (in CCCCO): 9.93 ns
fluorescence lifetime (in CCCO): 9.91 ns
fluorescence lifetime (in CCO): 9.44 ns
fluorescence lifetime (in CCOC(C)=O): 8.48 ns
fluorescence lifetime (in CN(C)C=O): 10.4 ns
fluorescence lifetime (in CO): 9.17 ns
fluorescence lifetime (in CS(C)=O): 11.2 ns
fluorescence lifetime (in Cc1ccccc1): 7.94 ns
fluorescence lifetime (in ClC(Cl)(Cl)Cl): 5.41 ns
fluorescence lifetime (in ClCCl): 9.85 ns
fluorescence lifetime (in O): 6.93 ns
fluorescence lifetime (in c1ccccc1): 8.01 ns

SMILES: c1ccc2c(c1)Oc1ccccc1N2c1ccc(-c2nnc(-c3ccc(N4c5ccccc5Oc5ccccc54)cc3)o2)cc1
fluorescence lifetime (in Cc1ccccc1): 21.2 ns
fluorescence lifetime [1]: 11.2 ns

SMILES: N#Cc1nc2c3ccc(-c4ccc(-n5c6ccccc6c6ccccc65)cc4)cc3c3cc(-c4ccc(-n5c6ccccc6c6ccccc65)cc4)ccc3c2nc1C#N
fluorescence lifetime (in O=P(c1ccccc1)(c1ccccc1)c1cccc(-c2cc(-n3c4ccccc4c4ccccc43)cc(-n3c4ccccc4c4ccccc43)c2)n1): 40.6 ns

SMILES: O=C(c1ccc(N2c3ccccc3Sc3ccccc32)cc1)c1ccc2sc3ccccc3c2c1
fluorescence lifetime (in c1ccc2c(c1)c1ccccc1n2-c1ccc(-c2ccc(-n3c4ccccc4c4ccccc43)cc2)cc1): 37.4 ns

SMILES: O=C1c2cc(F)ccc2-c2cnccc21
fluorescence lifetime (in CC#N): 5.6 ns
fluorescence lifetime (in CCOC(C)=O): 6.6 ns
fluorescence lifetime (in Cc1ccccc1): 4.5 ns
fluorescence lifetime (in ClCCl): 6.3 ns

The next lines start with the values.

fluorescence lifetime (in C1CCCCC1): 8.8 ns
SMILES: Cc1cc(C)c(B(c2c(C)cc(C)cc2C)c2cc3ccc4ccccc4c3c3c2cc(N(C)C)c2ccccc23)c(C)c1

fluorescence lifetime (in C1CCCCC1): 2.2 ns
SMILES: CN(C)c1ccc2nc(-c3ccc(C(=O)OC(C)(C)C)cc3)sc2c1

fluorescence lifetime (in ClC(Cl)Cl): 4.4 ns
SMILES: COc1ccc(-c2oc3cccc4c5c(-c6ccc(OC)c(OC)c6)/c(=N/S(=O)(=O)C(F)(F)F)oc6cccc(c2c34)c65)cc1OC

fluorescence lifetime (in CC#N): 6.6 ns
SMILES: C[n+]1ccc2c(ccc3c[n+](C)ccc32)c1

fluorescence lifetime (in C1CCCCC1): 2 ns
SMILES: CN(C)C(=O)c1ccc(-c2nc3ccc(N(C)C)cc3s2)cc1

fluorescence lifetime (in ClCCl): 6.4 ns
SMILES: CC(C)(C)c1ccc(-c2nc3c4ccccc4c4ccccc4c3n2-c2ccc(C(C)(C)C)cc2)cc1

fluorescence lifetime (in ClCCl): 0.15 ns
SMILES: C[Si]1(C)c2ccccc2-c2ccccc21

fluorescence lifetime (in C1CCOC1): 2.4 ns
fluorescence lifetime (in C1COCCO1): 2.41 ns
fluorescence lifetime (in CC#N): 2.32 ns
fluorescence lifetime (in CC(C)O): 2.11 ns
fluorescence lifetime (in CCO): 2.04 ns
fluorescence lifetime (in CCOC(C)=O): 2.41 ns
fluorescence lifetime (in CN(C)C=O): 2.59 ns
fluorescence lifetime (in CO): 1.66 ns
fluorescence lifetime (in CS(C)=O): 2.56 ns
fluorescence lifetime (in O): 3.35 ns
SMILES: Cc1ccc(C2CC(c3ccc(O)cc3)=NN2c2ccc(S(N)(=O)=O)cc2)cc1 (stereo unspecified)

fluorescence lifetime (in CC#N): 0.63 ns
fluorescence lifetime (in CO): 0.81 ns
SMILES: CN1c2ccccc2CCc2ccccc21

fluorescence lifetime (in CCO): 1.94 ns
SMILES: Cc1cc(C)c(-c2nnc(-c3ccc(-n4c5ccccc5c5ccccc54)c(C)c3)o2)c(C)c1

fluorescence lifetime (in C1CCOC1): 7.83 ns
fluorescence lifetime (in CO): 13.8 ns
SMILES: CCOC(=O)C1=CNC=C(C(=O)OCC)C1c1ccccc1

fluorescence lifetime (in C1CCOC1): 2.3 ns
fluorescence lifetime (in CC#N): 2.7 ns
fluorescence lifetime (in CCO): 3.65 ns
fluorescence lifetime (in CS(C)=O): 4.03 ns
SMILES: CCOC(=O)c1ccccc1-c1c2ccc(=O)cc-2oc2cc(OC(=O)[C@H](CO[Si](C)(C)C(C)(C)C)NC(=O)OC(C)(C)C)ccc12

fluorescence lifetime (in ClCCl): 2.2 ns
SMILES: COc1ccc(-c2c3cc4ccccc4cc3c(C#Cc3ccccc3)c3cc4ccccc4cc23)cc1

fluorescence lifetime (in C1CCCCC1): 14.3 ns
fluorescence lifetime (in CC#N): 19.1 ns
fluorescence lifetime (in CO): 18.3 ns
fluorescence lifetime (in ClCCl): 12.1 ns
SMILES: COc1ccc2c3c(OC)c4ccccc4c(OC)c3n(C)c2c1

fluorescence lifetime (in O): 3.87 ns
SMILES: Nc1cc([NH3+])cc(-c2nc3ccccc3s2)c1

fluorescence lifetime (in Cc1ccccc1-c1cccc(Oc2cc3c4c(c2)Oc2cc(-c5ccccc5C)ccc2B4c2ccc(-c4ccccc4C)cc2O3)c1): 6.01 ns
SMILES: Cc1ccc2c(c1)B(c1c(C(C)C)cc(C(C)C)cc1C(C)C)c1cc(C)cc3c1N2c1ccc(C)cc1B3c1c(C(C)C)cc(C(C)C)cc1C(C)C

fluorescence lifetime (in CC#N): 1.3 ns
SMILES: Fc1cccc(-[c+]2c3ccccc3sc3ccccc32)c1

fluorescence lifetime (in CC1CCCCC1): 2.9 ns
fluorescence lifetime (in CC#N): 1.92 ns
fluorescence lifetime (in CO): 1.19 ns
SMILES: CC(C)(C)OC(=O)NC(Cc1ccc2oc(-c3ccccn3)nc2c1)C(=O)O (stereo unspecified)

fluorescence lifetime (in CCO): 6.4 ns
fluorescence lifetime (in ClC(Cl)Cl): 4.8 ns
SMILES: COc1ccc2c(-c3nc(-c4ccccc4)no3)cc(=O)oc2c1

fluorescence lifetime (in CC#N): 0.43 ns
fluorescence lifetime (in CCCCCC): 0.34 ns
SMILES: C(=C\c1ccc2ccccc2c1)/c1ccc(Nc2ccccc2)cc1

fluorescence lifetime (in ClCCl): 0.85 ns
SMILES: COc1ccc2c(c1)c1cc(OC)ccc1c1c2c2c(C(=O)NC(C)(C)C)ccc(C(=O)NC(C)(C)C)c2c2c3ccc(OC)cc3c3cc(OC)ccc3c21

fluorescence lifetime (in C1CCCCC1): 4 ns
SMILES: c1ccc(-c2cc3cccc[n+]3[b-]3ccc(-c4cc[b-]5c(c4)c(-c4ccccc4)cc4cccc[n+]54)cc32)cc1

fluorescence lifetime (in ClC(Cl)Cl): 1.4 ns
SMILES: CCCCc1cc(-c2cccc(COC)c2)oc1-c1cccc(-c2oc(-c3cccc(COC)c3)cc2CCCC)c1
